The record followed here is paper PMC9516332 (Frontiers in Oncology, 2022).

What all share (test): Kinase panel profiling at 1 µmol/L (MSA or IMAP), percentage inhibition
What all share (assay type): biochemical

Assay [1] has as its target T1, panel of 255 wild-type kinases (Homo sapiens, UniProt O00141).
T1 sequence (O00141 1-431): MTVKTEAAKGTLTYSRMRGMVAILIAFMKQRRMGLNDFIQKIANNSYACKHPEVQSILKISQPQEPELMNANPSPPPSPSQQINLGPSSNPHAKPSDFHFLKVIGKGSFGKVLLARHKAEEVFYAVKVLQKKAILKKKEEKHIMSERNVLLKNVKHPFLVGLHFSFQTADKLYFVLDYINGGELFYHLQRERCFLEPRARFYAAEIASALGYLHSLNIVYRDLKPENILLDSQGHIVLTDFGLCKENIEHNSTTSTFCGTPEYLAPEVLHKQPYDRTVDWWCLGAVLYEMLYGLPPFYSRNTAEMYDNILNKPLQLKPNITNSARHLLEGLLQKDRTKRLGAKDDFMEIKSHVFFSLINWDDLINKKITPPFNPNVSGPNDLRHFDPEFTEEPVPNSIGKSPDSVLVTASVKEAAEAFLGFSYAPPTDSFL
Conditions: kinase SGK; 1 µmol/L single concentration; read-out: %-inhibition at 1 µmol/L, SGK.

Assay [2] addresses panel of 255 wild-type kinases (Homo sapiens, UniProt P17252). Conditions: kinase PKCα; 1 µmol/L single concentration; read-out: %-inhibition at 1 µmol/L, PKCα.
For assay [3], the target named is panel of 255 wild-type kinases (Homo sapiens, UniProt P17612). Conditions: kinase PKACα; 1 µmol/L single concentration; read-out: %-inhibition at 1 µmol/L, PKACα.
The target in assay [4] is panel of 255 wild-type kinases (Homo sapiens, UniProt P49759). Conditions: kinase CLK1; 1 µmol/L single concentration; read-out: %-inhibition at 1 µmol/L, CLK1.
Assay [5] addresses panel of 255 wild-type kinases (Homo sapiens, UniProt P49760). Conditions: kinase CLK2; 1 µmol/L single concentration; read-out: %-inhibition at 1 µmol/L, CLK2.
Assay [6] has as its target panel of 255 wild-type kinases (Homo sapiens, UniProt Q13177). Conditions: PAK2; 1 µmol/L single concentration; read-out: %-inhibition, PAK2.
For assay [7], the target named is panel of 255 wild-type kinases (Homo sapiens, UniProt Q13554). Conditions: CaMK2β kinase assay; 1 µmol/L single concentration; read-out: %-inhibition CaMK2β.
Assay [8] concerns the target T2, panel of 255 wild-type kinases (Homo sapiens, UniProt Q13976).
T2 sequence (Q13976 1-671): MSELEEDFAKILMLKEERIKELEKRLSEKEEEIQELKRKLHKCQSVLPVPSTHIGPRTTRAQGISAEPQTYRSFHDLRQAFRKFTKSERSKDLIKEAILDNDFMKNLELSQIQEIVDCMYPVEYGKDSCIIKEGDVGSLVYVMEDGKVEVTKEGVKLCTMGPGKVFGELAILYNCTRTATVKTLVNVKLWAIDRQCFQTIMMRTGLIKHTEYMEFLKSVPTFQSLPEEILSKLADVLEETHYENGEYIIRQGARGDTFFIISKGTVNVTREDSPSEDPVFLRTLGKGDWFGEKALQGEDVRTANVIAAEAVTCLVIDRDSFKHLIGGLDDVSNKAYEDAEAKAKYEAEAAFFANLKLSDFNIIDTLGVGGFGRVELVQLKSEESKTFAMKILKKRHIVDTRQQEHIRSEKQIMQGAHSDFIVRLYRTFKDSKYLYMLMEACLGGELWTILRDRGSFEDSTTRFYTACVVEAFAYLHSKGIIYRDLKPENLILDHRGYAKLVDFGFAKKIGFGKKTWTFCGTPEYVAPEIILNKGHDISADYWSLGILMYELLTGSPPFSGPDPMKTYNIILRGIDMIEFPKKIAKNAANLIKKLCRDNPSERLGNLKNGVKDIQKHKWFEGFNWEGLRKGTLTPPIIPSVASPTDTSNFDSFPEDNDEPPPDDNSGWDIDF
Conditions: kinase PGK; 1 µmol/L single concentration; read-out: %-inhibition at 1 µmol/L, PGK.

Assay [9] addresses panel of 255 wild-type kinases (Homo sapiens, UniProt Q15418). Conditions: kinase RSK1; 1 µmol/L single concentration; read-out: %-inhibition at 1 µmol/L, RSK1.
The target in assay [10] is panel of 255 wild-type kinases (Homo sapiens, UniProt Q86Z02). Conditions: kinase HIPK1; 1 µmol/L single concentration; read-out: %-inhibition at 1 µmol/L, HIPK1.
Assay [11] has as its target T3, panel of 255 wild-type kinases (Homo sapiens, UniProt Q8IWQ3).
T3 sequence (Q8IWQ3 1-736): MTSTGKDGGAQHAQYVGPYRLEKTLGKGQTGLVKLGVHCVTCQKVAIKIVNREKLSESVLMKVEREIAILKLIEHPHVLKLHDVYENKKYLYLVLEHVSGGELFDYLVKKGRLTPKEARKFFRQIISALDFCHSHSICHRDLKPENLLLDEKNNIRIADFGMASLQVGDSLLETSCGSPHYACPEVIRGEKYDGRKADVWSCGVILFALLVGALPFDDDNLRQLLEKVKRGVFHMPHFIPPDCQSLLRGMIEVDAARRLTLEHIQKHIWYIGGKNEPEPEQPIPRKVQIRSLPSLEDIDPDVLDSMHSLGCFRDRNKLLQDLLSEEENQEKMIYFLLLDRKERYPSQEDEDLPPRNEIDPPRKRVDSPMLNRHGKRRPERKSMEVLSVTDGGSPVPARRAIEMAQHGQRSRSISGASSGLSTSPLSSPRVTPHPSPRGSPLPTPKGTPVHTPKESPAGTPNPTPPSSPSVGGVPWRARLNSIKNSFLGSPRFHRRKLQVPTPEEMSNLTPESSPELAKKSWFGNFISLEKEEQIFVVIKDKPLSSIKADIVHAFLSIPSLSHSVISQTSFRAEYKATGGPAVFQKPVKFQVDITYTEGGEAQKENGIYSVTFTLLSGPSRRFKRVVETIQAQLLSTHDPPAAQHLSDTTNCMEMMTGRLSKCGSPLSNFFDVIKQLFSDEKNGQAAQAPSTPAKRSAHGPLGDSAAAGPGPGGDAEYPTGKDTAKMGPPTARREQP
Conditions: BRSK2 kinase assay; 1 µmol/L single concentration; read-out: %-inhibition BRSK2.

For `COC(=O)N[C@@H](C)CNc1nccc(-c2cn(C(C)C)nc2-c2cc(Cl)cc(NS(C)(=O)=O)c2F)n1` [encorafenib], the inhibition at 1 µM was 7% in assay [1]; 5% in assay [2]; -10% in assay [3]; 3% in [4]; 0.465% in [5]; 9.49% in [6]. Moreover, the inhibition at 1 µM in [7] was 4.23%; in assay [8], -1.28%; in [9] it was -2%; in [10], 5.6%; in assay [11], -8%.

For `O=C(Nc1cnn2ccc(N3CCC[C@@H]3c3cc(F)ccc3F)nc12)N1CC[C@H](O)C1` [larotrectinib], the inhibition at 1 µM was -1.16% in [1]; -3% in [2]; -20% in assay [3]; 5.31% in assay [4]; 9% in assay [5]; -10% in assay [6]. Moreover, the inhibition at 1 µM in assay [7] is 0.902%; in assay [8], -2.33%; in [9] it was -3.46%; in [10], -3.73%; in assay [11] it was 0.485%.

Turning to `C[C@H]1Oc2cc(cnc2N)-c2c(nn(C)c2C#N)CN(C)C(=O)c2ccc(F)cc21` [lorlatinib], the inhibition at 1 µM in assay [1] was -0.181%; in assay [2], 12%; in assay [3] it was -8%; in assay [4], -2.47%; in assay [5] it was 2.49%; in [6], 11%. Besides, the inhibition at 1 µM in assay [7] was -3.21%; in assay [8], 0.684%; in assay [9] it was 2.31%; in [10] it was -1.71%; in [11] it was 36%.

As for `CCN1C(=O)N(c2c(F)c(OC)cc(OC)c2F)Cc2cnc3[nH]c(CN4CCOCC4)cc3c21` [pemigatinib], the inhibition at 1 µM in assay [1] was 5%; in assay [2], -1.62%; in assay [3], -9%; in assay [4], 5%; in assay [5] it was 6.37%; in assay [6], 6%. In addition, the inhibition at 1 µM in assay [7] was 9%; in assay [8] it was -1.82%; in assay [9], -1.79%; in [10] it was 1.47%; in assay [11] it was 3.17%.

`FC(F)(F)c1ccc(CNc2ccc(Cc3c[nH]c4ncc(Cl)cc34)cn2)cn1` [pexidartinib]: the inhibition at 1 µM in assay [1] was 11%; in assay [2] it was -8%; in assay [3], -7%; in [4], 13%; in [5], 3.48%; in assay [6] it was -2.4%. Besides, the inhibition at 1 µM was 3% in [7]; 14% in assay [8]; 7.43% in assay [9]; 4.72% in assay [10]; 5.28% in assay [11].

In the case of `CO[C@]1(C(=O)N[C@@H](C)c2ccc(-n3cc(F)cn3)nc2)CC[C@H](c2nc(C)cc(Nc3cc(C)[nH]n3)n2)CC1` [pralsetinib], the inhibition at 1 µM in assay [1] worked out at 7%; in assay [2] it was 3%; in assay [3] it was 16%; in assay [4] it was 32%; in [5], 9.51%; in assay [6], 16%. Moreover, the inhibition at 1 µM is -0.895% in [7]; 13% in assay [8]; 26% in [9]; 13% in assay [10]; 14% in assay [11].

In the case of `CCn1c(=O)c(-c2cc(NC(=O)Nc3ccccc3)c(F)cc2Br)cc2cnc(NC)cc21` [ripretinib], the inhibition at 1 µM in assay [1] is -5%; in assay [2], -1.85%; in assay [3], -16%; in assay [4], 1%; in assay [5], -4%; in assay [6] it was 4.69%. Moreover, the inhibition at 1 µM in [7] is 1.19%; in assay [8] it was -0.449%; in assay [9] it was 8%; in [10], -5.27%; in assay [11], 8%.

In the case of `COc1ccc(CN2C3CC2CN(c2ccc(-c4cc(OCC(C)(C)O)cn5ncc(C#N)c45)cn2)C3)cn1` [selpercatinib], the inhibition at 1 µM in [1] is 11%; in [2] it was 3.23%; in assay [3], -5%; in assay [4], 19%; in [5] it was -2.3%; in assay [6] it was 5%. In addition, the inhibition at 1 µM is 1.27% in [7]; 0.302% in assay [8]; 51% in assay [9]; -0.334% in [10]; 35% in [11].

On to `Cn1cnc2c(F)c(Nc3ccc(Br)cc3Cl)c(C(=O)NOCCO)cc21` [selumetinib], for which the inhibition at 1 µM in [1] was 1.83%; in assay [2], 0.203%; in assay [3], -28%; in [4], 5%; in assay [5] it was 7%; in assay [6], -3.7%. The inhibition at 1 µM in [7] was -0.923%; in [8] it was -2%; in assay [9], -8%; in [10], 0.0183%; in [11] it was 4%.
